# ChEMBL document CHEMBL5241129, “Design and synthesis of novel orexin 2 receptor agonists with a 1,3,5‑trioxazatriquinane skeleton” (Bioorg Med Chem Lett, 2023)
# Activity calls are given as the source filed them. The calls are words filed in the database; no cut-off is given here.
# Target: T1, Orexin/Hypocretin receptor type 1 (Homo sapiens) (UniProt O43613)
# T1 sequence (whole entry): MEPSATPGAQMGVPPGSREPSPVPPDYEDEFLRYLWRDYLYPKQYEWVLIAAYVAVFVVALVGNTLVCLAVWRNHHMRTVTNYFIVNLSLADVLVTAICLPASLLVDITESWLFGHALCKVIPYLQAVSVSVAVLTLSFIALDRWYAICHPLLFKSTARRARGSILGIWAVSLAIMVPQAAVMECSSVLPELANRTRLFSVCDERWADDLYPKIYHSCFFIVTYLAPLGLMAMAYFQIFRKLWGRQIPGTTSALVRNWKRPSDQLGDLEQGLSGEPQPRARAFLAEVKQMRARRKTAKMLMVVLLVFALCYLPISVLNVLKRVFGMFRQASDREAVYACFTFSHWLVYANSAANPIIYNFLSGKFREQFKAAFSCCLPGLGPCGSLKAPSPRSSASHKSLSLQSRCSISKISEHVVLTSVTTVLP
# Assay: Agonist activity at OX1R (unknown origin) expressed in CHO cells at 10 uM by cell based calcium assay
# Settings: not given
row,SMILES,Activity
1,C[C@]1(CNS(=O)(=O)c2ccccc2)O[C@H]2CO[C@@H]3N2[C@H]1O[C@]3(C)CNS(=O)(=O)c1ccccc1,inactive

# Target: T2, Orexin receptor type 2 (Homo sapiens) (UniProt O43614)
# T2 sequence (whole entry): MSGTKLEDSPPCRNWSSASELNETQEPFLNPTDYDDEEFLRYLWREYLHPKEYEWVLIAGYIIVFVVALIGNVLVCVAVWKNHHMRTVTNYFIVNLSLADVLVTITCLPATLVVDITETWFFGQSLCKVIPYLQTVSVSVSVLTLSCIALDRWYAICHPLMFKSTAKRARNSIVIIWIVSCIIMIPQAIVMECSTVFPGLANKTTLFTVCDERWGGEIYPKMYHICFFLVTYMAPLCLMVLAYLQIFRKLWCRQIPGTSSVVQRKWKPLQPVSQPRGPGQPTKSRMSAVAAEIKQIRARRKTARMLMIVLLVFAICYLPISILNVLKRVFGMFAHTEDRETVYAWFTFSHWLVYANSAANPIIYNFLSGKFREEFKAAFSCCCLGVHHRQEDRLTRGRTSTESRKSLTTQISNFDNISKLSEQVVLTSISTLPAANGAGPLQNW
# Assay: Agonist activity at OX2R (unknown origin) expressed in CHO cells at 10 uM by cell based calcium assay
# Settings: not given
row,SMILES,Activity
1,C[C@]1(CNC(=O)c2ccccc2)O[C@H]2CO[C@@H]3N2[C@H]1O[C@]3(C)CNC(=O)c1ccccc1,inactive
2,COc1ccc(C(=O)NC[C@@]2(C)O[C@H]3CO[C@@H]4N3[C@H]2O[C@]4(C)CNC(=O)c2ccc(OC)cc2)cc1,inactive
3,C[C@@]1(CNC(=O)OCc2ccccc2)O[C@H]2CO[C@@H]3N2[C@H]1O[C@@]3(C)CNC(=O)OCc1ccccc1,inactive
4,COc1cccc(C(=O)NC[C@@]2(C)O[C@H]3CO[C@@H]4N3[C@H]2O[C@]4(C)CNC(=O)c2cccc(OC)c2)c1,inactive
5,C=CCOC(=O)NC[C@]1(C)O[C@H]2CO[C@@H]3N2[C@H]1O[C@@]3(C)CNC(=O)OCC=C,inactive
6,C[C@]1(CNS(=O)(=O)c2ccccc2)O[C@H]2CO[C@@H]3N2[C@H]1O[C@]3(C)CNS(=O)(=O)c1ccccc1,inactive
7,C[C@]1(CNC(=O)Cc2ccccc2)O[C@H]2CO[C@@H]3N2[C@H]1O[C@]3(C)CNC(=O)Cc1ccccc1,inactive
8,C[C@@]1(CNC(=O)/C=C/c2ccccc2)O[C@H]2CO[C@@H]3N2[C@H]1O[C@@]3(C)CNC(=O)/C=C/c1ccccc1,inactive
9,C[C@@]1(CNC(=O)c2ccccc2)O[C@H]2CO[C@@H]3N2[C@H]1O[C@@]3(C)CNC(=O)c1ccccc1,inactive
10,COc1cccc(C(=O)NC[C@]2(C)O[C@H]3CO[C@@H]4N3[C@H]2O[C@@]4(C)CNC(=O)c2cccc(OC)c2)c1,inactive
11,CC(C)(C)C(=O)NC[C@@]1(C)O[C@H]2CO[C@@H]3N2[C@H]1O[C@]3(C)CNC(=O)C(C)(C)C,inactive
12,CC(C)(C)C(=O)NC[C@]1(C)O[C@H]2CO[C@@H]3N2[C@H]1O[C@@]3(C)CNC(=O)C(C)(C)C,inactive
13,COC(=O)NC[C@]1(C)O[C@H]2CO[C@@H]3N2[C@H]1O[C@@]3(C)CNC(=O)OC,inactive
14,C=CCOC(=O)NC[C@@]1(C)O[C@H]2CO[C@@H]3N2[C@H]1O[C@]3(C)CNC(=O)OCC=C,inactive
15,COc1ccccc1C(=O)NC[C@]1(C)O[C@H]2CO[C@@H]3N2[C@H]1O[C@@]3(C)CNC(=O)c1ccccc1OC,inactive
16,C[C@]1(CNC(=O)/C=C/c2ccccc2)O[C@H]2CO[C@@H]3N2[C@H]1O[C@]3(C)CNC(=O)/C=C/c1ccccc1,inactive
17,C[C@]1(CNC(=O)OCc2ccccc2)O[C@H]2CO[C@@H]3N2[C@H]1O[C@]3(C)CNC(=O)OCc1ccccc1,inactive
18,C[C@]1(CNC(=O)OCC(Cl)(Cl)Cl)O[C@H]2CO[C@@H]3N2[C@H]1O[C@]3(C)CNC(=O)OCC(Cl)(Cl)Cl,inactive
19,C[C@]1(CNC(=O)CCc2ccccc2)O[C@H]2CO[C@@H]3N2[C@H]1O[C@]3(C)CNC(=O)CCc1ccccc1,inactive
20,C[C@@]1(CNC(=O)OCC(Cl)(Cl)Cl)O[C@H]2CO[C@@H]3N2[C@H]1O[C@@]3(C)CNC(=O)OCC(Cl)(Cl)Cl,inactive
21,CC(=O)NC[C@]1(C)O[C@H]2CO[C@@H]3N2[C@H]1O[C@@]3(C)CNC(C)=O,inactive
22,C[C@@]1(CNC(=O)Cc2ccccc2)O[C@H]2CO[C@@H]3N2[C@H]1O[C@@]3(C)CNC(=O)Cc1ccccc1,inactive
23,CC(=O)NC[C@@]1(C)O[C@H]2CO[C@@H]3N2[C@H]1O[C@]3(C)CNC(C)=O,inactive
24,COc1ccc(C(=O)NC[C@]2(C)O[C@H]3CO[C@@H]4N3[C@H]2O[C@@]4(C)CNC(=O)c2ccc(OC)cc2)cc1,inactive
25,COc1ccccc1C(=O)NC[C@@]1(C)O[C@H]2CO[C@@H]3N2[C@H]1O[C@]3(C)CNC(=O)c1ccccc1OC,inactive
26,C[C@@]1(CNC(=O)CCc2ccccc2)O[C@H]2CO[C@@H]3N2[C@H]1O[C@@]3(C)CNC(=O)CCc1ccccc1,inactive
27,COC(=O)NC[C@@]1(C)O[C@H]2CO[C@@H]3N2[C@H]1O[C@]3(C)CNC(=O)OC,inactive

# Target: T1, Orexin/Hypocretin receptor type 1 (Homo sapiens)
# Assay: Antagonist activity at OX1R (unknown origin) expressed in CHO cells at 10 uM in presence of orexin A by cell based calcium assay
# Settings: not given
row,SMILES,Activity
1,CCCCCCCCS(=O)(=O)NC[C@]1(C)O[C@@H]2CO[C@H]3N2[C@@H]1O[C@@]3(C)CNS(=O)(=O)CCCCCCCC (stereo in doubt; 28a),inactive
2,CCCCS(=O)(=O)NC[C@@]1(C)O[C@@H]2CO[C@H]3N2[C@@H]1O[C@]3(C)CNS(=O)(=O)CCCC,inactive
3,CCCS(=O)(=O)NC[C@@]1(C)O[C@@H]2CO[C@H]3N2[C@@H]1O[C@]3(C)CNS(=O)(=O)CCC,inactive
4,CCCCCCCCS(=O)(=O)NC[C@@]1(C)O[C@@H]2CO[C@H]3N2[C@@H]1O[C@]3(C)CNS(=O)(=O)CCCCCCCC (racemic),inactive
5,C[C@]1(CNS(C)(=O)=O)O[C@@H]2CO[C@H]3N2[C@@H]1O[C@]3(C)CNS(C)(=O)=O,inactive
6,CC(C)(C)OC(=O)NC[C@@]1(C)O[C@@H]2CO[C@H]3N2[C@@H]1O[C@]3(C)CNC(=O)OC(C)(C)C (racemic),inactive

# Target: T3, Orexin receptor type 2 (Homo sapiens, UniProt O43614)
# T3 sequence (O43614 whole entry): T2 sequence (whole entry)
# Assay: Agonist activity at OX2R (unknown origin) expressed in CHO cells by cell based calcium assay
# Settings: not given
row,SMILES,EC50 [nM]
1,CCCCCCCCS(=O)(=O)NC[C@@]1(C)O[C@H]2CO[C@@H]3N2[C@H]1O[C@]3(C)CNS(=O)(=O)CCCCCCCC,2420
2,CCCCCCCCS(=O)(=O)NC[C@]1(C)O[C@@H]2CO[C@H]3N2[C@@H]1O[C@@]3(C)CNS(=O)(=O)CCCCCCCC (stereo in doubt; (+)-28d) [listing 1 of 2 here],1620

# Target: T4, Orexin/Hypocretin receptor type 1 (Homo sapiens, UniProt O43613)
# T4 sequence (O43613 whole entry): T1 sequence (whole entry)
# Assay: Antagonist activity at OX1R (unknown origin)
# Settings: not given
row,SMILES,Ki [nM]
1,COc1ccc(C(=O)Nc2cccc([C@@]3(C)O[C@@H]4CO[C@H]5N4[C@@H]3O[C@]5(C)c3cccc(NC(=O)c4ccc(OC)cc4)c3)c2)cc1,2.17
2,COc1ccc(C(=O)Nc2cccc([C@]3(C)O[C@H]4CO[C@@H]5N4[C@H]3O[C@@]5(C)c3cccc(NC(=O)c4ccc(OC)cc4)c3)c2)cc1,5.23

# Target: T1, Orexin/Hypocretin receptor type 1 (Homo sapiens)
# Assay: Agonist activity at OX1R (unknown origin) expressed in CHO cells at 10 uM by cell based calcium assay relative to orexin A
# Settings: not given
row,SMILES,Emax [%]
1,CC(C)(C)OC(=O)NC[C@]1(C)O[C@@H]2CO[C@H]3N2[C@@H]1O[C@@]3(C)CNC(=O)OC(C)(C)C (stereo in doubt; 20a),30.1
2,CCCCCCCCS(=O)(=O)NC[C@]1(C)O[C@@H]2CO[C@H]3N2[C@@H]1O[C@@]3(C)CNS(=O)(=O)CCCCCCCC (stereo in doubt; 28a),11.8
3,CN(C[C@@]1(C)O[C@@H]2CO[C@H]3N2[C@@H]1O[C@]3(C)CN(C)C(=O)OC(C)(C)C)C(=O)OC(C)(C)C,4.47
4,CCCCCCCCS(=O)(=O)NC[C@@]1(C)O[C@@H]2CO[C@H]3N2[C@@H]1O[C@@]3(C)CNS(=O)(=O)CCCCCCCC,3.86
5,CCCCCCCCS(=O)(=O)NC[C@]1(C)O[C@@H]2CO[C@H]3N2[C@@H]1O[C@@]3(C)CNS(=O)(=O)CCCCCCCC (stereo in doubt; (+)-28d) [listing 2 of 2 here],5.66
6,CC(C)(C)NC(=O)NC[C@@]1(C)O[C@@H]2CO[C@H]3N2[C@@H]1O[C@]3(C)CNC(=O)NC(C)(C)C,2.81
7,CC(C)(C)OC(=O)NC[C@]1(C)O[C@@H]2CO[C@H]3N2[C@@H]1O[C@@]3(C)CNC(=O)OC(C)(C)C (stereo in doubt; (+)-20d),5.07
8,CCCCCCCCS(=O)(=O)NC[C@@]1(C)O[C@H]2CO[C@@H]3N2[C@H]1O[C@]3(C)CNS(=O)(=O)CCCCCCCC,5.29
9,CCCCS(=O)(=O)NC[C@@]1(C)O[C@@H]2CO[C@H]3N2[C@@H]1O[C@]3(C)CNS(=O)(=O)CCCC,11.1
10,CCCCCCCCS(=O)(=O)NC[C@@]1(C)O[C@H]2N3[C@@H](CO[C@@H]31)O[C@@]2(C)CNS(=O)(=O)CCCCCCCC,3.71
11,CCCS(=O)(=O)NC[C@@]1(C)O[C@@H]2CO[C@H]3N2[C@@H]1O[C@]3(C)CNS(=O)(=O)CCC,14.2
12,CC(C)(C)OC(=O)NC[C@@]1(C)O[C@H]2CO[C@@H]3N2[C@H]1O[C@]3(C)CNC(=O)OC(C)(C)C,4.31
13,CCCCCCCCS(=O)(=O)NC[C@@]1(C)O[C@@H]2CO[C@H]3N2[C@@H]1O[C@]3(C)CNS(=O)(=O)CCCCCCCC (racemic),23.6
14,C[C@]1(CNS(C)(=O)=O)O[C@@H]2CO[C@H]3N2[C@@H]1O[C@]3(C)CNS(C)(=O)=O,5.66
15,CC(C)(C)OC(=O)NC[C@@]1(C)O[C@H]2N3[C@@H](CO[C@@H]31)O[C@@]2(C)CNC(=O)OC(C)(C)C,4.94
16,CC(C)(C)OC(=O)NC[C@@]1(C)O[C@@H]2CO[C@H]3N2[C@@H]1O[C@@]3(C)CNC(=O)OC(C)(C)C,2.21
17,CCCCCCCCS(=O)(=O)N(C)C[C@@]1(C)O[C@@H]2CO[C@H]3N2[C@@H]1O[C@]3(C)CN(C)S(=O)(=O)CCCCCCCC,2.65

# Same assay, conditions: filed as agonist
row,SMILES,Emax [%]
1,CC(C)(C)OC(=O)NC[C@@]1(C)O[C@@H]2CO[C@H]3N2[C@@H]1O[C@]3(C)CNC(=O)OC(C)(C)C (racemic),54
